Experimental data published in patent publication US20240065988A1, “COMBINED USE OF KETAMINE AND RETIGABINE (EZOGABINE) FOR THE TREATMENT OF PSYCHIATRIC DISORDERS” (Yeda Research and Development Co. Ltd., priority 2021, published 2024).

Tested on: single cells from the ventral hippocampus (vHipp)
Test: Single-cell RNA sequencing (scRNA-seq) of the ventral hippocampus after ketamine treatment; differential expression per cell type
Details: for Mean-Ket / logFC / Change: Glut Neurons
[1] = Microglia, ketamine 10 mg/kg i.p. vs saline
[2] = OPCs, ketamine 10 mg/kg i.p. vs saline
[3] = Oligodendrocytes, ketamine 10 mg/kg i.p.
[4] = Oligodendrocytes, ketamine 10 mg/kg i.p. vs saline

CNC1(c2ccccc2Cl)CCCCC1=O (racemic) [ketamine, (R,S)-ketamine]
Mean-Ket (Lsm8): 1.062 | logFC (Lsm8): −0.125 | Change (Map1lc3b): Down | Mean-Ket (Map1lc3b): 1.349 | logFC (Map1lc3b): −0.132 | Change (Map4): Down | Mean-Ket (Map4): 2.794 | logFC (Map4): −0.101 | Change (Matr3): Down | Mean-Ket (Matr3): 1.685 | logFC (Matr3): −0.160 | Eef1akmt3 Mean-Ket (Microglia, ketamine 10 mg/kg i.p.): 1.718 | Eef1akmt3 Change [1]: Up | Eef1akmt3 logFC [1]: 0.394 | Change (Mmachc): Down | Mean-Ket (Mmachc): 2.750 | logFC (Mmachc): −0.102 | Change (Mrpl48): Up | Mean-Ket (Mrpl48): 1.060 | logFC (Mrpl48): 0.180 | Change (Mtg2): Down | Mean-Ket (Mtg2): 2.635 | logFC (Mtg2): −0.091 | Change (Ndufc1): Down | Mean-Ket (Ndufc1): 1.039 | logFC (Ndufc1): −0.150 | Change (Nedd4): Down | Mean-Ket (Nedd4): 1.358 | logFC (Nedd4): −0.161 | Change (Nop58): Down | Mean-Ket (Nop58): 2.645 | logFC (Nop58): −0.096 | Change (Nvl): Up | Mean-Ket (Nvl): 1.070 | logFC (Nvl): 0.148 | genes differentially expressed exclusively in one cell type (OPCs): 3 | Akap5 Mean-Ket (OPCs, ketamine 10 mg/kg i.p.): 3.963 | Eef1akmt3 Mean-Ket (OPCs, ketamine 10 mg/kg i.p.): 1.870 | Ilf2 Mean-Ket (OPCs, ketamine 10 mg/kg i.p.): 1.310 | Lrrc17 Mean-Ket (OPCs, ketamine 10 mg/kg i.p.): 3.227 | Mfsd4a Mean-Ket (OPCs, ketamine 10 mg/kg i.p.): 0.916 | Saa3 Mean-Ket (OPCs, ketamine 10 mg/kg i.p.): 1.654 | Tmem181b-ps Mean-Ket (OPCs, ketamine 10 mg/kg i.p.): 0.055 | Tmem1311 Mean-Ket (OPCs, ketamine 10 mg/kg i.p.): 0.804 | Tmprss11a Mean-Ket (OPCs, ketamine 10 mg/kg i.p.): 0.015 | Akap5 Change [2]: Down | Akap5 logFC [2]: −0.320 | Eef1akmt3 Change [2]: Up | Eef1akmt3 logFC [2]: 0.527 | Ilf2 Change [2]: Up | Ilf2 logFC [2]: 0.398 | Lrrc17 Change [2]: Down | Lrrc17 logFC [2]: −0.286 | Mfsd4a Change [2]: Up | Mfsd4a logFC [2]: 0.460 | Saa3 Change [2]: Up | Saa3 logFC [2]: 0.404 | Tmem181b-ps Change [2]: Down | Tmem181b-ps logFC [2]: −0.195 | Tmem1311 Change [2]: Up | Tmem1311 logFC [2]: 0.585 | Tmprss11a Change [2]: Down | Tmprss11a logFC [2]: −0.121 | Change (Oaz1): Down | Mean-Ket (Oaz1): 1.200 | logFC (Oaz1): −0.205 | Akap5 Mean-Ket [3]: 3.517 | Eef1akmt3 Mean-Ket [3]: 2.089 | Gsn Mean-Ket [3]: 1.005 | Ilf2 Mean-Ket [3]: 1.493 | Jpt2 Mean-Ket [3]: 1.507 | Lrrc17 Mean-Ket [3]: 2.805 | Map3k20 Mean-Ket [3]: 2.351 | Mfsd4a Mean-Ket [3]: 1.058 | Mmachc Mean-Ket [3]: 3.286 | Pias4 Mean-Ket [3]: 1.649 | Ppp1r7 Mean-Ket [3]: 1.026 | Psmb11 Mean-Ket [3]: 1.161 | Saa3 Mean-Ket [3]: 1.909 | Sec14l1 Mean-Ket [3]: 1.281 | Slc10a7 Mean-Ket [3]: 1.538 | Snhg11 Mean-Ket [3]: 2.917 | Supt7l Mean-Ket [3]: 2.509 | Them4 Mean-Ket [3]: 1.517 | Tulp1 Mean-Ket [3]: 1.893 | Upf3b Mean-Ket [3]: 3.197 | Vps8 Mean-Ket [3]: 1.703 | Xcr1 Mean-Ket [3]: 1.078 | Zfp229 Mean-Ket [3]: 1.093 | Zfp827 Mean-Ket [3]: 1.284 | Akap5 Change [4]: Down | Akap5 logFC [4]: −0.393 | Eef1akmt3 Change [4]: Up | Eef1akmt3 logFC [4]: 0.601 | Gsn Change [4]: Up | Gsn logFC [4]: 0.254 | Ilf2 Change [4]: Up | Ilf2 logFC [4]: 0.463 | Jpt2 Change [4]: Up | Jpt2 logFC [4]: 0.265 | Lrrc17 Change [4]: Down | Lrrc17 logFC [4]: −0.365 | Map3k20 Change [4]: Up | Map3k20 logFC [4]: 0.245 | Mfsd4a Change [4]: Up | Mfsd4a logFC [4]: 0.642 | Mmachc Change [4]: Up | Mmachc logFC [4]: 0.154 | Pias4 Change [4]: Up | Pias4 logFC [4]: 0.209 | Ppp1r7 Change [4]: Up | Ppp1r7 logFC [4]: 0.231 | Psmb11 Change [4]: Up | Psmb11 logFC [4]: 0.191 | Saa3 Change [4]: Up | Saa3 logFC [4]: 0.574 | Sec14l1 Change [4]: Up | Sec14l1 logFC [4]: 0.238 | Slc10a7 Change [4]: Up | Slc10a7 logFC [4]: 0.192 | Snhg11 Change [4]: Up | Snhg11 logFC [4]: 0.164 | Supt7l Change [4]: Up | Supt7l logFC [4]: 0.169 | Them4 Change [4]: Up | Them4 logFC [4]: 0.233 | Tulp1 Change [4]: Up | Tulp1 logFC [4]: 0.207 | Upf3b Change [4]: Up | Upf3b logFC [4]: 0.166 | Vps8 Change [4]: Down | Vps8 logFC [4]: −0.217 | Xcr1 Change [4]: Up | Xcr1 logFC [4]: 0.197 | Zfp229 Change [4]: Up | Zfp229 logFC [4]: 0.199
